# Measurements: patent publication US20150290226A1, “NOVEL LYOPHILIZED COMPOSITIONS OF CYCLOPHOSPHAMIDE” (LEIUTIS PHARMACEUTICALS PVT. LTD., priority 2012, published 2015)
# Where “and” joins values, the source holds several entries; their conditions need not be identical. Equal entries are not always repeated. Where two headings read alike, the source gives them in different places.
# Assays:
# [1] = Method: The solubility of Cyclophosphamide monohydrate in various solvents was checked. The quantity of solvent consumed for dissolving 100 mg of Cyclophosphamide monohydrate is given below: […]
# [2] = remark: listed apart in the source
# Text: The change of description of Cyclophosphamide monohydrate at various temperatures was studied by exposing the drug to different temperatures under constant vacuum and details are given in Tables 6 & 7: […]
# [3] = Moisture content (KF titration) of drug substance and lyophilizate; type: physicochemical; settings: Sample numbers I, II, III, listed as Drug substance (Monohydrate Form)
# Text: (§1) The moisture content and water activity of the drug substance as well as the lyophilizate was checked to ensure the retention of the crystalline monohydrate form of the drug substance in the Lyophilizate. Water activity instruments measure the amount of free (sometimes referred to as unbound or active) water present in the sample and KF titration measures the total water in a sample.
# [4] = Water activity of drug substance and lyophilizate; type: physicochemical; settings: Sample numbers I, II, III, listed as Drug substance (Monohydrate Form)
# Text: as §1
# [5] = Vacuum 1000 mtorr, +25° C. (5 hrs)
# [6] = Vacuum 1000 mtorr, −2° C. (12 hrs)
# [7] = Vacuum 1000 mtorr, −15° C. (19 hrs)
# [8] = Vacuum 1000 mtorr, −25° C. (12 hrs)
# [9] = Vacuum 1000 mtorr, −40° C. (5 hrs)
smiles,measurement,setting,value
"Cl.[O-][P+]1(N(CCCl)CCCl)NCCCO1 (stereo not drawn) [Cyclophosphamide monohydrate, 2-[bis(2-chloroethyl)amino]tetrahydro-2H-1,3,2-oxazaphosphorine 2-oxide monohydrate]",quantity of solvent consumed for dissolving 100 mg,[1]; Acetone,0.4 mL
same,quantity of solvent consumed for dissolving 100 mg,[1]; Acetonitrile,0.5 mL
same,quantity of solvent consumed for dissolving 100 mg,[1]; Dimethyacetamide,2.0 mL
same,quantity of solvent consumed for dissolving 100 mg,[1]; Ethanol,0.5 mL
same,quantity of solvent consumed for dissolving 100 mg,[1]; Tertiary butyl alcohol,0.5 mL
same,quantity of solvent consumed for dissolving 100 mg,[1]; Water,2.45 mL
same,% Moisture content,[2]; Initial,6.87%
same,Observation for Description,[2]; Initial,Powder
same,% Moisture content,[2]; [5],2.94%
same,Observation for Description,[2]; [5],Liquid
same,% Moisture content,[2]; [6],4.52%
same,Observation for Description,[2]; [6],Sticky
same,% Moisture content,[2]; [7],6.29%
same,Observation for Description,[2]; [7],Powder
same,% Moisture content,[2]; [8],6.27%
same,Observation for Description,[2]; [8],Powder
same,% Moisture content,[2]; [9],6.23%
same,Observation for Description,[2]; [9],Powder
same,Description,"[2]; −10 °C, 350 mtorr and 6 hours",Powder
same,Moisture Content (%),"[2]; −10 °C, 350 mtorr and 6 hours",7.56%
same,Description,"[2]; −15 °C, 350 mtorr and 12 hours",Powder
same,Moisture Content (%),"[2]; −15 °C, 350 mtorr and 12 hours",6.99%
same,Description,"[2]; −25 °C, 150 mtorr and 6 hours",Powder
same,Moisture Content (%),"[2]; −25 °C, 150 mtorr and 6 hours",6.87%
same,Description,"[2]; −25 °C, 150 mtorr and 15 hours",Sticky Mass
same,Moisture Content (%),"[2]; −25 °C, 150 mtorr and 15 hours",4.55%
same,Description,"[2]; −25 °C, 280 mtorr and 12 hours",Powder
same,Moisture Content (%),"[2]; −25 °C, 280 mtorr and 12 hours",6.51%
same,Moisture Content (%),[3],6.64% and 6.75% and 6.72%
same,Water Activity (aw),[4],0.374 and 0.372 and 0.373
